Experimental data: patent US9029092B2, “Solution phase homogeneous assays” (Beckman Coulter, Inc., priority 2009, dated 2015)

Tested on: PSA
Test: Assay of PSA with direct-labeled sbp's (Ab1-AK11, Ab2-HRP) with and without SSIA
Assay type: biochemical, human
Conditions: 600 μM ascorbic acid solution
Experimental: The Ab1-AK11 conjugate was provided in PBS, pH 7.4 at 10 μg/ml. The Ab2-HRP conjugate was provided in PBS, pH 7.4 at 0.25 μg/ml. […] For comparison without SSIA, in a second reaction vessel, 25 μl of Ab1-AK11 conjugate, 25 μl of water, 25 μl of Ab2-HRP conjugate were added to 25 μl of sample and incubated for 15 minutes.
Each sample was analyzed according to the above assay method in triplicate. The RLU data collected for each assayed sample during the time interval of 495 milliseconds starting 125 milliseconds from start of trigger solution introduction into the reaction vessel was summed for each individual run, averaged over the triplicates for each sample and presented in Table 13. A ratio of signal to noise (S/S0) was calculated at each concentration value.

Question: With `O=C1O[C@H]([C@@H](O)CO)C(O)=C1O` [Ascorbic Acid] as the compound, how does the “RLU, With SSIA” value (PSA 0.0 ng/mL) read?
Answer: The value was 180 RLU.

Question: What about the “S/S0, With SSIA” value (PSA 0.0 ng/mL) of the same compound?
Answer: The value was 1.0.

Question: What about the “RLU, With SSIA” value (PSA 0.4 ng/mL) of the same compound?
Answer: Its value is 324 RLU.

Question: What about the “S/S0, With SSIA” value (PSA 0.4 ng/mL) of the same compound?
Answer: The value was 1.8.

Question: And the “RLU, With SSIA” value (PSA 7.0 ng/mL)?
Answer: The value was 3032 RLU.

Question: What about the “S/S0, With SSIA” value (PSA 7.0 ng/mL) of the same compound?
Answer: Its value is 16.8.

Question: And the “RLU, With SSIA” value (PSA 101.6 ng/mL)?
Answer: The value was 23119 RLU.

Question: What about the “S/S0, With SSIA” value (PSA 101.6 ng/mL) of the same compound?
Answer: The value was 128.4.
